In paper PMC9071099, “Towards an advanced testing strategy for genotoxicity using image-based 2D and 3D HepG2 DNA damage response fluorescent protein reporters” (Mutagenesis, 2021):
Like-named read-outs stand apart in the source and are kept apart here.

Key:
BTG2-GFP HepG2 reporter = format: cell-based
Description: (§1) The HepG2 BAC-GFP reporters for human BTG2, p21 and p53 were generated previously and used to monitor the DDR ([14],[18]). Cells were maintained in DMEM high glucose (Gibco) supplemented with 10% (v/v) fetal bovine serum (FBS), 25 U/ml penicillin and 25 µg/ml streptomycin (referred to as normal DMEM medium) at 37°C and 5% CO2. The reporter cells were tested between passages 19–21 throughout the data presented (Supplementary Figure 1, available at Mutagenesis Online).
(§2) Two different compound exposure scenarios were performed: a single exposure in 2D and a 4-day repeated exposure in 3D. A schematic overview of the tested exposure scenarios for each HepG2 model has been depicted in Figure 1. For the single exposure scenario in 2D, medium was replaced by freshly diluted compound in medium 24 h post seeding. DDRs were monitored after 24, 48 and 72 h by live cell confocal imaging (Figure 1A and B). For the 4-day repeated exposure scenario in 3D, each day medium was replaced by freshly diluted compound in medium for four consecutive days (Figure 1C and D). The imaging was started 24 h after the last exposure. For both scenarios, five compounds in eight concentrations were tested. DMSO, PBS or ultrapure H2O were used as solvent controls. The ATP-lite luminescence kit (Perkin Elmer) was used according to supplier’s protocol to measure cell viability. Measurements were performed 72 h or 24 h post single or repeated exposure, respectively. Absolute IC50 values have been calculated over the ATP-lite data by determining the intersect of the fitted concentration–response curve with the 50% viability baseline via GraphPad prism 8.1.1.
(§3) Prior to imaging, cells were stained with Hoechst 33342 at a concentration of 0.1 µg/ml to visualise the nuclei. To examine compound-induced cell death using confocal microscopy, propidium iodide (PI) was added during all compound exposures at a concentration of 100 µM to stain for necrotic or late apoptotic cells. The induction of GFP intensities and PI were monitored with a Nikon Eclipse Ti confocal laser microscope (Nikon, Amsterdam, The Netherlands), equipped with lasers at wavelengths 408, 488 and 561, an automated stage and perfect focus system at 37°C and 5% CO2. Images for 2D cultures were acquired with a Nikon 20x Dry Plan Apo VC NA 0.75 objective. Images for 3D cultures were acquired with a Nikon 10x Dry Plan Fluor NA 0.3 objective. For each condition, a z-stack of 9–11 images was generated with a step size of 30 µm.
(§4) For 2D cultures, image quantification was performed with Cell Profiler version 2.2.0 (Broad Institute, Cambridge, USA) using modules described previously ([14]). Nuclei segmentation based on Hoechst was done in ImageJ using an in-house developed macro based on the watershed masked clustering algorithm ([27]). Segmentation of the cytoplasmic area was done using the Distance N method expanding the edges of nuclear objects with six pixels followed by subtraction of the nuclear area. p21 and p53-GFP intensities were measured in the nuclei and BTG2-GFP in the cytoplasm. The PI-positive cells were identified by an overlay of the PI signal and the segmented nuclei. A cell was considered positive when there was at least 10% overlap. Results were stored in HDF5 format ([28]). To extract summarised data for further analysis and visualisation, in-house developed R-scripts were used in RStudio (version 1.0.153) (Boston, MA, USA) ([29–31]). The mean nuclear and cytoplasmic intensities of all measured single cells and the fraction of PI-positive cells for each image were extracted as output from the HDF5 files.
(§5) For 3D cultures, the NIS Elements analysis software (Nikon, Amsterdam, The Netherlands) was used to quantify the GFP intensity and PI-positive area within spheroids.

[1] = system: p53 pathway activation (p53-GFP, p21-GFP, BTG2-GFP HepG2 reporters); format: cell-based; settings: for DDR (p21 and p53 activation): 3D, 4-day repeated dosing
Description: as §1, §2, §3, §4, §5

p53-GFP HepG2 reporter = test: p53-GFP reporter activation, live cell confocal imaging; format: cell-based, human; settings: 2D, normal DMEM medium
Description: as §1
Two different compound exposure scenarios were performed: a single exposure in 2D and a 4-day repeated exposure in 3D. A schematic overview of the tested exposure scenarios for each HepG2 model has been depicted in Figure 1. For the single exposure scenario in 2D, medium was replaced by freshly diluted compound in medium 24 h post seeding. DDRs were monitored after 24, 48 and 72 h by live cell confocal imaging (Figure 1A and B). […] The ATP-lite luminescence kit (Perkin Elmer) was used according to supplier’s protocol to measure cell viability. […]
Prior to imaging, cells were stained with Hoechst 33342 at a concentration of 0.1 µg/ml to visualise the nuclei. […] The induction of GFP intensities and PI were monitored with a Nikon Eclipse Ti confocal laser microscope (Nikon, Amsterdam, The Netherlands), equipped with lasers at wavelengths 408, 488 and 561, an automated stage and perfect focus system at 37°C and 5% CO2. […]

PHH = system: PHH; parameters: method as in PMID 32318794; settings: cited from earlier work

Cc1c(-c2ccc(-c3ccccc3F)cc2)nc2ccc(F)cc2c1C(=O)O [Brequinar]
BTG2-GFP response across culture conditions (BTG2-GFP HepG2 reporter; four culture conditions): only induced BTG2-GFP responses in the proliferating HepG2 cultured in 2D in normal DMEM medium | DDR (p21 and p53 activation) ([1]; AAGLY medium): induced a DDR (p21 and p53 activation) at the highest concentration | DDR (p21 and p53 activation) ([1]; normal DMEM medium): not seen | DDR ([1]; 24 h after exposure): no DDR was observed | maximal p53 induction compared to other reporters (p53-GFP HepG2 reporter): ~ 3 fold

N.N.[Cl][Pt][Cl] [Cisplatin]
DDR detection (PoD) ([1]; 2D culturing, AAGLY medium): could not be detected | concentration giving clear reporter activation ([1]; AAGLY medium or 3D culture): ≥ 10 µM | PoD of reporter activation ([1]; HepG2 2D, normal DMEM medium): 0.32 to 1.83 µM | concentration giving clear concentration-dependent reporter activation ([1]; all DNA damage reporters, 2D, normal DMEM medium): ≥ 0.46 µM | PoD (CometChip) (PHH): 6.3 µM

Nc1ccn([C@@H]2O[C@H](CO)[C@@H](O)C2(F)F)c(=O)n1 [Gemcitabine]
BTG2-GFP response across culture conditions (BTG2-GFP HepG2 reporter; human): only induced BTG2-GFP responses in the proliferating HepG2 cultured in 2D in normal DMEM medium | PoD of reporter activation [1]: did not induce a quantifiable genotoxic effect | genotoxic effects (reporter activation) [1]: almost absent | PoD of reporter activation ([1]; human): ≤ 0.028 µM

Aflatoxin B1
concentration of peak BTG2-GFP induction (BTG2-GFP HepG2 reporter): 10 µM | concentration at which reporter induction was already observed [1]: 0.1 µM | induction of DNA damage reporters [1]: induced DNA damage reporters (BTG2, p21 and p53) in all culture conditions | reporter induction [1]: ≤ 4.5 fold
